Where “and” joins values, the source holds several entries; their conditions need not be identical. Identical values can stand only once.
Key:
HCXV virus = assay: Protective effectiveness against Coxsackie virus (HCXV) infection in mice; assay type: in vivo, white mice; settings: for Total mortality rate: 10LD50 intramuscularly
[1] = test system: West Nile virus strain Eg101; assay: Experimental form of West Nile Fever in white mice; settings: for Protective ratio, % / Average lifetime / Extension of the average lifetime, Δ: 5 mg/kg orally; for Protective ratio, %: 10LD50 subcutaneously; for Average lifetime / Extension of the average lifetime, Δ: 10LD50
Description: In the experiment West Nile virus strain Eg101 was used. Infected animals were monitored for 21 days. Their death was controlled, and the average lifetime of the white mice were calculated in the experimental and control groups.
The main criteria of the in vivo effectiveness were the values of protection of the laboratory animals against death and the average lifetime of the animals in a group.

[2] = Adverse side effects during long-term administration; settings: long-term administration in therapeutic doses or doses greater by an order of magnitude
TBE virus strain Sof′ in = test system: TBE virus strain Sof′ in; set-up: species or system white mice; settings: mouse, in vivo
dengue fever virus = assay: Experimental form of dengue fever, virus proliferation in the blood of white mice; assay type: in vivo; settings: for Level of virus accumulation in the blood, lg PFU/ml: infected intracerebrally
Description: To determine antiviral activity, white mice were infected intracerebrally with a dengue fever virus. […] Infected animals were monitored for 21 days. Biological samples were evaluated on day 5 after infection.

[3] = test system: human rhinovirus strain (HRV 1B); assay: Antiviral activity against human rhinovirus on an in vivo experimental model (virus in mouse lungs); set-up: species or system mice; settings: for Infectious virus titer in lungs, lg, TCID50: orally once daily for 3 days from 12 h after infection; for Suppression of the virus reproduction (Δ lg): orally once daily for 3 days, vs normal saline
[4] = 0.3 mg/kg orally once daily for 5 days from 24 h after infection
[5] = 3 mg/kg orally once daily for 5 days from 24 h after infection
[6] = 30 mg/kg orally once daily for 5 days from 24 h after infection
[7] = prevention scheme −96 h to −1 h
[8] = treatment scheme +24 h to +168 h
[9] = 30 mg/kg, single administration −144 h before infection
[10] = 30/15 mg/kg, treatment scheme +24 h to +120 h
[11] = 5 mg/kg orally, prevention scheme −96 h to −1 h
[12] = 5 mg/kg orally, treatment scheme +24 h to +168 h
[13] = 20 mg/kg, treatment scheme +24 h to +120 h
[14] = ribavirin, treatment scheme +24 h to +120 h

O=C(O)CCCC(=O)NCCc1c[nH]cn1 [Glutaryl histamine, glutaryl histamine]
Average lifetime, (%) (HCXV virus; [4]): 24.4%
Extension of the days lifetime, Δ, days (HCXV virus; [4]): +14.4 days
Protective ratio, % average (HCXV virus; [4]): 45.4%
Total mortality rate (HCXV virus; [4]): 42.9
Average lifetime, (%) (HCXV virus; [5]): 21.7%
Extension of the days lifetime, Δ, days (HCXV virus; [5]): +11.7 days
Protective ratio, % average (HCXV virus; [5]): 36.4%
Total mortality rate (HCXV virus; [5]): 50.0
Average lifetime, (%) (HCXV virus; [6]): 19.6%
Extension of the days lifetime, Δ, days (HCXV virus; [6]): +9.6 days
Protective ratio, % average (HCXV virus; [6]): 27.4%
Total mortality rate (HCXV virus; [6]): 57.1
Protective ratio, % ([1]; prevention scheme −96 h, −72 h, −48 h, −24 h, −1 h): 42.9%
Average lifetime [1, 7]: 11.2 days
Extension of the average lifetime, Δ [1, 7]: 4.2 days
Average lifetime [1, 8]: 9.8 days
Extension of the average lifetime, Δ [1, 8]: 2.8 days
Protective ratio, % [1, 8]: 37.8%
Average lifetime of animals in a group [1, 9]: 10.8 days
Extension of the average lifetime of animals in a group, Δ [1, 9]: 3.7 days
Protection against death, % [1, 9]: 40.0%
Protection against death, % ([1]; 30/15 mg/kg, treatment scheme +24 h, +48 h, +72 h, +96 h, +120 h): 50.0%
Average lifetime of animals in a group [1, 10]: 11.5 days
Extension of the average lifetime of animals in a group, Δ [1, 10]: 4.5 days
Extension of the average lifetime of animals in a group, Δ ([1]; 30/15 mg/kg, treatment scheme +24 h to +120 h, listed as glutaryl histamine): 3.5 days
Adverse side effects [2]: no adverse side effects have been registered
Average lifetime (TBE virus strain Sof′ in): 15.1 days and 15.4 days and 13.6 days and 10.5 days and 10.1 days
Extension of the average lifetime (TBE virus strain Sof′ in): 3.1 days and 3.2 days
Extension of the average lifetime, Δ (TBE virus strain Sof′ in): 3.9 days and 2.4 days
Protection against death, % (TBE virus strain Sof′ in): 30.0% and 40.0%
Protective ratio, % (TBE virus strain Sof′ in): 40% and 35%
Degree of inhibition of the virus accumulation, % (dengue fever virus; [11]): 95.5%
Reduction in the level of virus accumulation, lg (dengue fever virus; [11]): 1.6 lg
Level of virus accumulation in the blood, lg PFU/ml (dengue fever virus; 5 mg/kg orally, prevention scheme −96 h to −1 h, day 5 after infection): 5.0 lg PFU/ml
Degree of inhibition of the virus accumulation, % (dengue fever virus; [12]): 98.6%
Reduction in the level of virus accumulation, lg (dengue fever virus; [12]): 1.8 lg
Level of virus accumulation in the blood, lg PFU/ml (dengue fever virus; 5 mg/kg orally, treatment scheme +24 h to +168 h, day 5 after infection): 4.8 lg PFU/ml
Degree of inhibition of the virus accumulation, % (dengue fever virus; [10]): 99.6%
Reduction in the level of virus accumulation, lg (dengue fever virus; [10]): 2.6 lg
Level of virus accumulation in the blood, lg PFU/ml (dengue fever virus; [10]): 4.8 lg PFU/ml
Infectious virus titer in lungs, lg, TCID50 ([3]; 15 mg/ml, 48 hrs): 2.8 ± 0.4 lg, TCID50
Infectious virus titer in lungs, lg, TCID50 ([3]; 15 mg/ml, 72 hrs): 2.1 ± 0.3 lg, TCID50
Suppression of the virus reproduction (Δ lg) ([3]; 15 mg/ml, 48 hrs): 1.3 Δ lg
Suppression of the virus reproduction (Δ lg) ([3]; 15 mg/ml, 72 hrs): 1.1 Δ lg
Infectious virus titer in lungs, lg, TCID50 ([3]; 30 mg/ml, 48 hrs): 1.5 ± 0.3 lg, TCID50
Infectious virus titer in lungs, lg, TCID50 ([3]; 30 mg/ml, 72 hrs): 1.0 ± 0.3 lg, TCID50
Suppression of the virus reproduction (Δ lg) ([3]; 30 mg/ml, 48 hrs): 2.6 Δ lg
Suppression of the virus reproduction (Δ lg) ([3]; 30 mg/ml, 72 hrs): 2.2 Δ lg

NC(=O)c1ncn([C@@H]2O[C@H](CO)[C@@H](O)[C@H]2O)n1 [Ribavirin, ribavirin, reference compound]
Protection against death, % of animals ([1]; 20 mg/kg, prevention scheme): 50%
Average lifetime of animals in a group [1, 13]: 7.2 days
Extension of the average lifetime of animals in a group, Δ [1, 13]: 0.2 days
Protection against death, % [1, 13]: 10.0%
Degree of inhibition of the virus accumulation, % (dengue fever virus; [14]): 83.4%
Reduction in the level of virus accumulation, lg (dengue fever virus; [14]): 1.0 lg
Level of virus accumulation in the blood, lg PFU/ml (dengue fever virus; [14]): 6.4 lg PFU/ml

Source: patent publication US9820970B2, “Method and agent for the treatment and prophylaxis of diseases caused by (+)RNA-containing viruses” (OBSSCHESTVO S OGRANICHENNOI OTVETSTVENNOSTIYU …, priority 2012, dated 2017)
